Laboratory results: patent US9896441B2 (Lycera Corporation, priority 2014, dated 2018)
pEC50: −log10 of the molar value.

Experiments:
[1] = target: T1, Gal4-RORγ-LBD (Homo sapiens, UniProt P51449); assay: Gal4-RORγ Luciferase Reporter Assay in HEK-293T Cells; assay type: cell-based; settings: HEK-293 cells, luciferase reporter; for Gal4-RORγ Assay Max Response: maximum response
T1 construct: expressed in transfected cells
T1 sequence (P51449 269-508 limits assumed): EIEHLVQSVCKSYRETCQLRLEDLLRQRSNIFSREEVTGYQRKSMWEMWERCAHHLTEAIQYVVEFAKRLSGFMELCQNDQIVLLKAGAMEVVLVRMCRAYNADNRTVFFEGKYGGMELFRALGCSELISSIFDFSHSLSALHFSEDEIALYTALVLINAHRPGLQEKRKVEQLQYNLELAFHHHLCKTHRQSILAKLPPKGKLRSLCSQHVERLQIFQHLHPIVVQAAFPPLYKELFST
In short: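 HEK-293 cells were co-transfected with Gal4-RORγ-LBD and a Gal4-luciferase reporter, then exposed overnight at 37 °C to compounds with […] ursolic acid present (0.2% DMSO). Luminescence was read with One-Glo after 10 min at RT, untreated signal was set as 100, and Max Response was taken as the upper plateau of a 4-parameter logistic fit.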

[2] = target: T2, RORγ-LBD (Homo sapiens, UniProt P51449); assay: RORγ-Ligand Binding Domain (LBD) TR-FRET Assay; assay type: biochemical; settings: for TR-FRET Assay Max Response: maximum response;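 on TR-FRET Assay Max Response: 665/615 nm signal ratio set to 100 without ursolic acid or test compound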
T2 construct: made in house; host or cells: SF9 cells (baculovirus); used as diluted lysate
T2 sequence (P51449 269-508 limits assumed): T1 sequence (P51449 269-508 limits assumed)
In short: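 This TR-FRET coactivator assay pairs baculovirus-expressed His-RORγ-LBD (~3 nM final) with biotin-SRC1 LXXLL peptide at 200 nM final in pH 7.0 Tris/KCl/EDTA/DTT/BSA buffer.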

Row | Compound | pEC50 ([1]; in presence of ursolic acid) | pEC50 ([2]; RORγ-LBD TR-FRET assay) | pEC50 ([1]; with ursolic acid) | pEC50 ([2]; RORγ-LBD TR-FRET) | TR-FRET Assay Max Response ([2]; RORγ-LBD TR-FRET assay) | Gal4-RORγ Assay Max Response ([1]; in presence of ursolic acid)
1 | CCOc1nn(CC)cc1S(=O)(=O)N1C[C@H](CCC(=O)O)Oc2ccc(/C=C/c3nccs3)cc21 [Example 89Q, (S,E)-3-(4-((3-ethoxy-1-ethyl-1H-pyrazol-4-yl)sulfonyl)-6-(2-(thiazol-2-yl)vinyl)-3,4-dihydro-2H-benzo[b][1,4]oxazin-2-yl)propanoic acid] | – | – | < 5.00 | < 5.00 | – | –
2 | CCOc1nn(CC)cc1S(=O)(=O)N1C[C@H](CCC(=O)OC)Oc2ccc(/C=C/c3ccccc3C)cc21 [Example 89AT, (S,E)-methyl 3-(4-((3-ethoxy-1-ethyl-1H-pyrazol-4-yl)sulfonyl)-6-(2-methylstyryl)-3,4-dihydro-2H-benzo[b][1,4]oxazin-2-yl)propanoate] | – | – | 5.30 to 6.30 | > 6.30 | – | –
3 | O=C(O)CC[C@H]1CN(S(=O)(=O)c2cc(C(F)(F)F)cnc2OCCCO)c2cc(/C=C/c3c(F)cccc3Cl)ccc2O1 [Example 89FC, (S,E)-3-(6-(2-chloro-6-fluorostyryl)-4-((2-(3-hydroxypropoxy)-5-(trifluoromethyl)pyridin-3-yl)sulfonyl)-3,4-dihydro-2H-benzo[b][1,4]-oxazin-2-yl)propanoic acid] | – | – | 5.30 to 6.30 | > 6.30 | – | –
4 | CCOc1nn(CC)cc1S(=O)(=O)N1C[C@H](CCC(=O)O)Oc2ccc(/C=C/c3c(Cl)cccc3C(C)(F)F)cc21 [Example 89FE, (S,E)-3-(6-(2-chloro-6-(1,1-difluoroethyl)styryl)-4-((3-ethoxy-1-ethyl-1H-pyrazol-4-yl)sulfonyl)-3,4-dihydro-2H-benzo[b][1,4]oxazin-2-yl)propanoic acid] | – | – | > 6.30 | > 6.30 | – | –
5 | CC1CCC(=Cc2ccc3c(c2)N(S(=O)(=O)c2cc(C(F)(F)F)cnc2OCCO)C[C@H](CCC(=O)O)O3)CC1 (stereo partly drawn) [Example 95P, 3-((2S)-4-((2-(2-hydroxyethoxy)-5-(trifluoromethyl)pyridin-3-yl)sulfonyl)-6-((4-methylcyclohexylidene)methyl)-3,4-dihydro-2H-benzo[b][1,4]oxazin-2-yl)propanoic acid] | – | – | 5.30 to 6.30 | > 6.30 | – | –
6 | CCOc1ncc(Cl)cc1S(=O)(=O)N1C[C@H](CCC(=O)OC)Oc2ccc(/C=C(\C)c3c(F)cccc3Cl)cc21 [Example 67, Methyl (S,E)-3-(4-((5-chloro-2-ethoxypyridin-3-yl)sulfonyl)-6-(2-(2-chloro-6-fluorophenyl)prop-1-en-1-yl)-3,4-dihydro-2H-benzo[b][1,4]oxazin-2-yl)propanoate] | – | – | 5.30 to 6.30 | > 6.30 | – | –
7 | C/C(=C\c1ccc2c(c1)N(S(=O)(=O)c1cccc(C(F)(F)F)c1)C[C@H](CCO)O2)c1c(F)cccc1Cl [Example 106, (S,E)-2-(6-(2-(2-Chloro-6-fluorophenyl)prop-1-en-1-yl)-4-((3-(trifluoromethyl)phenyl)sulfonyl)-3,4-dihydro-2H-benzo[b][1,4]oxazin-2-yl)ethanol] | > 6.30 | > 6.30 | – | – | *** (a value in the range of greater than 150 to 200) | ** (a value in the range of greater than 90 to 150)
8 | CCOc1ncc(C(F)(F)F)cc1S(=O)(=O)N1C[C@H](CCC(=O)OC)Oc2ccc(/C=C/c3c(OC)cccc3C(F)(F)F)cc21 [Example 89EU, methyl (S,E)-3-(4-((2-ethoxy-5-(trifluoromethyl)pyridin-3-yl)sulfonyl)-6-(2-methoxy-6-(trifluoromethyl)styryl)-3,4-dihydro-2H-benzo[b][1,4]-oxazin-2-yl)propanoate] | – | – | 5.30 to 6.30 | > 6.30 | – | –
9 | COC(=O)CC[C@H]1CN(S(=O)(=O)c2cn(C(F)F)nc2C)c2cc(/C=C(\C)c3c(F)cccc3Cl)ccc2O1 [Example 86X, (S)-methyl 3-(6-(2-(2-chloro-6-fluorophenyl)prop-1-en-1-yl)-4-((1-(difluoromethyl)-3-methyl-1H-pyrazol-4-yl)sulfonyl)-3,4-dihydro-2H-benzo[b][1,4]oxazin-2-yl)propanoate] | – | – | 5.30 to 6.30 | > 6.30 | – | –
10 | O=C(O)CC[C@H]1CN(S(=O)(=O)c2cccc(C(F)F)c2)c2cc(/C=C/c3c(Cl)cccc3C(F)F)ccc2O1 [Example 89EP, (S,E)-3-(6-(2-chloro-6-(difluoromethyl)styryl)-4-((3-(difluoromethyl)phenyl)-sulfonyl)-3,4-dihydro-2H-benzo[b][1,4]oxazin-2-yl)propanoic acid] | – | – | > 6.30 | > 6.30 | – | –
11 | C/C(=C\c1ccc2c(c1)N(S(=O)(=O)c1cccc(C(F)(F)F)c1)C[C@H](CCNS(=O)(=O)C1CC1)O2)c1c(F)cccc1Cl [Example 116A, (S,E)-N-(2-(6-(2-(2-chloro-6-fluorophenyl)prop-1-en-1-yl)-4-((3-(trifluoro-methyl)phenyl)-sulfonyl)-3,4-dihydro-2H-benzo[b][1,4]oxazin-2-yl)ethyl)cyclopropane-sulfonamide] | > 6.30 | > 6.30 | – | – | *** (a value in the range of greater than 150 to 200) | ** (a value in the range of greater than 90 to 150)

More lines, main results first:

Row | pEC50 ([1]; in presence of ursolic acid) | pEC50 ([2]; RORγ-LBD TR-FRET assay) | pEC50 ([1]; with ursolic acid) | pEC50 ([2]; RORγ-LBD TR-FRET) | Compound | TR-FRET Assay Max Response ([2]; RORγ-LBD TR-FRET assay) | Gal4-RORγ Assay Max Response ([1]; in presence of ursolic acid)
12 | < 5.00 | > 6.30 | – | – | COc1cc(S(=O)(=O)N2C[C@H](CNC(=O)C(=O)O)Oc3ccc(/C=C(\C)c4c(F)cccc4Cl)cc32)ccc1F [Example 135B, (S,E)-2-(((6-(2-(2-chloro-6-fluorophenyl)prop-1-en-1-yl)-4-((4-fluoro-3-methoxyphenyl)sulfonyl)-3,4-dihydro-2H-benzo[b][1,4]oxazin-2-yl)methyl)amino)-2-oxoacetic acid] | **** (a value greater than 200) | –
13 | 5.30 to 6.30 | > 6.30 | – | – | CCOC(=O)C(C)(C)CC1CC(S(=O)(=O)c2ccc(F)c(OC)c2)c2cc(/C=C(\C)c3c(F)cccc3Cl)ccc2O1 (centres unmarked) [Example 186J, ethyl (E)-3-(6-(2-(2-chloro-6-fluorophenyl)prop-1-en-1-yl)-4-44-fluoro-3-methoxyphenyl)-sulfonyl)chroman-2-yl)-2,2-dimethylpropanoate] | ** (a value in the range of greater than 90 to 150) | ** (a value in the range of greater than 90 to 150)
14 | > 6.30 | > 6.30 | – | – | COc1cc(S(=O)(=O)N2C[C@H](CNC(=O)c3ccc(C(=O)O)cc3)Oc3ccc(/C=C(\C)c4c(F)cccc4Cl)cc32)ccc1F [Example 134, (S,E)-4-(((6-(2-(2-Chloro-6-fluorophenyl)prop-1-en-1-yl)-4-((4-fluoro-3-methoxyphenyl)sulfonyl)-3,4-dihydro-2H-benzo[b][1,4]oxazin-2-yl)methyl)carbamoyl)benzoic acid] | **** (a value greater than 200) | *** (a value in the range of greater than 150 to 200)
15 | > 6.30 | > 6.30 | – | – | COc1cc(S(=O)(=O)N2c3cc(OCc4c(F)cccc4Cl)ccc3C[C@@H](CNC(C)=O)[C@H]2C)ccc1F [Example 152, N-(((2R,3S)-7-((2-Chloro-6-fluorobenzyl)oxy)-1-((4-fluoro-3-methoxyphenyl)sulfonyl)-2-methyl-1,2,3,4-tetrahydroquinolin-3-yl)methyl)acetamide] | *** (a value in the range of greater than 150 to 200) | ** (a value in the range of greater than 90 to 150)
16 | 5.30 to 6.30 | > 6.30 | – | – | O=C(CC[C@H]1CN(S(=O)(=O)c2cccc(C(F)(F)F)c2)c2cc(/C=C/c3c(Cl)cccc3C(F)(F)F)ccc2O1)N1CC2(COC2)C1 [Example 127G, (S,E)-3-(6-(2-chloro-6-(trifluoromethyl)styryl)-4-((3-(trifluoromethyl)-phenyl)sulfonyl)-3,4-dihydro-2H-benzo[b][1,4]oxazin-2-yl)-1-(2-oxa-6-azaspiro[3.3]heptan-6-yl)propan-1-one] | **** (a value greater than 200) | * (a value in the range of 30 to 90)
17 | > 6.30 | > 6.30 | – | – | C/C(=C\c1ccc2c(c1)N(S(=O)(=O)c1cccc(C(F)(F)F)c1)C[C@@H](NC(=O)C(C)(C)O)C2)c1c(F)cccc1Cl [Example 116G, (S,E)-N-(7-(2-(2-chloro-6-fluorophenyl)prop-1-en-1-yl)-1-((3-(trifluoromethyl)-phenyl)sulfonyl)-1,2,3,4-tetrahydroquinolin-3-yl)-2-hydroxy-2-methylpropanamide] | *** (a value in the range of greater than 150 to 200) | * (a value in the range of 30 to 90)
18 | > 6.30 | > 6.30 | – | – | COc1cc(S(=O)(=O)N2C[C@H](CCNC(=O)[C@H](C)O)Oc3ccc(/C=C(\C)c4c(F)cccc4Cl)cc32)ccc1F [Example 116D, (S)-N-(2-((S)-6-((E)-2-(2-chloro-6-fluorophenyl)prop-1-en-1-yl)-4-((4-fluoro-3-methoxyphenyl)sulfonyl)-3,4-dihydro-2H-benzo[b][1,4]oxazin-2-yl)ethyl)-2-hydroxypropanamide] | *** (a value in the range of greater than 150 to 200) | ** (a value in the range of greater than 90 to 150)
